Legend:
h5-HT2B = h5-HT2B (Homo sapiens, UniProt P41595); experiment: Radioligand binding, h5-HT2B receptor ([3H]LSD)
Human = tested on: Human; design: method as in ref 48 (PiHKAL: A Chemical Love Story); conditions: ref 48 (PiHKAL: A Chemical Love Story); cited from earlier work
hα2A = biological target: T1, hα2A (Homo sapiens, UniProt P08913); experiment: Radioligand binding, hα2A receptor ([3H]rauwolscine)
T1 construct: expressed in transfected cells; host or cells: Chinese hamster lung cells (membrane preparation)
T1 sequence (P08913 1-465): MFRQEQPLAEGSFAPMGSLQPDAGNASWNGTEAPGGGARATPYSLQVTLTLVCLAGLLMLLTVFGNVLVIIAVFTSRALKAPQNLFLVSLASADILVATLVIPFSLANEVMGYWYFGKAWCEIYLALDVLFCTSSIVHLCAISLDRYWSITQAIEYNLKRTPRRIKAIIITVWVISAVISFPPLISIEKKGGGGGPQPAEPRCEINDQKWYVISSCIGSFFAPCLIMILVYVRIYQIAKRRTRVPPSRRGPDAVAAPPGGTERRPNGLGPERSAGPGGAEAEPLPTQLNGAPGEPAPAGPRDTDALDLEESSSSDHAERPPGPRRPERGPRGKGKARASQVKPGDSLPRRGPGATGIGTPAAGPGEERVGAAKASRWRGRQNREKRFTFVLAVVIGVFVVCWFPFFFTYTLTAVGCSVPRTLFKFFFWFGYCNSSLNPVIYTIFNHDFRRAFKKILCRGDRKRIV
Method: Binding affinities at human monoamine receptors and transporters were assessed as previously reported. A detailed description of the methodology is provided in the Supplementary information.
Data analysis was performed with Prism software (version 10.1.2, GraphPad Software, Boston, MA, USA). The IC50 values from the radioligand binding assays were determined by nonlinear regression, using three independent concentration-response curves fitted to a one-site model. The Cheng-Prusoff equation was used to calculate Kᵢ values for the competing ligands. EC50 values were determined by applying nonlinear regression to concentration-response curves. Bias factors (β) were calculated based on the relative intrinsic activity approach. More detailed information can be found in the Supplementary information. Mean values for total number of HTR, change in body temperature from pre to post session (Δ°C), and total distance traveled (cm) for each drug dose were compared (p < 0.05) via Welch’s ANOVA with Dunnett’s T3 post test, comparing all doses to respective vehicle controls (0 mg/kg). Welch’s ANOVA with Dunnett’s T3 post test was also used to compare drug concentrations, but the data were compared to DOM in this case. Dose–response relationships for HTR and locomotor activities were plotted using bell-shaped curve fits, while temperature change data were plotted using four-parameter non-linear regression curve fits. The ascending phase of the HTR curve for each drug was used to determine ED50 potency values from four parameter non-linear regression fits. For combined DOM and DOAM administration, the plasma, brain tissue, and brain dialysate drug concentrations were compared using paired t-tests (p < 0.05). Ratios were compared using Holm-Sidak’s post hoc test following a repeated-measures one-way ANOVA (F (1.709, 6.835) = 70.80; p < 0.0001).
3.1 Assessment of receptor and transporter binding affinities
Membrane preparations were prepared from cells transfected with the respective target. The membrane preparations were then incubated with selective radioligands at concentrations equal to the corresponding Kd and displacement of the ligand by the drugs was measured. The difference between total binding and nonspecific binding (determined in the presence of selective competitors) was defined as specific binding of the radioligand to the target receptor. The following transfected cell lines were used for the binding assays: HEK 293 cells (h5-HT1A, h5-HT2A, h5-HT2B, h5-HT2C, and hD2 receptors, hDAT, hNET, and hSERT), Chinese hamster ovary cells (hα 1A receptor), and Chinese hamster lung cells (hα 2A receptor).
3.1.1 Membrane preparations for receptor and transporter binding
For producing membrane preparations, transfected cells were harvested with trypsin/EDTA, washed with ice-cold phosphate buffered saline, and then pelleted by centrifugation (210 × g for 5 min at 4 °C). The pellets were frozen and stored at -80 °C until use. Frozen pellets were resuspended in 20 m L (receptor binding) or 400 m L (transporter binding) buffer (20 mM HEPES -NaOH, 10 mM EDTA, pH 7.4), and homogenized at 1,100 × g for 20 s (receptor binding) or 560 × g for 15 s (transporter binding); the homogenates were then centrifuged at 48,000 × g for 30 min at 4 °C. For receptor binding assays, the supernatants were discarded and the pellets were resuspended in 20 mL buffer (20 mM HEPES-NaOH, 0.1 mM EDTA, pH 7.4) and homogenized at 1 ,100 × g for 20 s. Centrifugation and discarding of the supernatant were repeated once, and the final pellet was then resuspended in buffer and homogenized.
3.1.2 Serotonin 5-HT1A and 5-HT2A receptor binding
Competitive binding at the h5-HT1A and h5-HT2A receptor was determined using 0.90 nM [ 3H]8-hydroxy-2-(di-n-propylamine)tetralin ([ 3H]8-OH-DPAT; h5-HT1A receptor agonist) and 0.40 nM [3H]ketanserin (h5-HT2 receptor antagonist) as radioligands. The density and affinity of [ 3H]8-OH-DPAT […]

h5-HT2B, sequence (P41595 whole entry): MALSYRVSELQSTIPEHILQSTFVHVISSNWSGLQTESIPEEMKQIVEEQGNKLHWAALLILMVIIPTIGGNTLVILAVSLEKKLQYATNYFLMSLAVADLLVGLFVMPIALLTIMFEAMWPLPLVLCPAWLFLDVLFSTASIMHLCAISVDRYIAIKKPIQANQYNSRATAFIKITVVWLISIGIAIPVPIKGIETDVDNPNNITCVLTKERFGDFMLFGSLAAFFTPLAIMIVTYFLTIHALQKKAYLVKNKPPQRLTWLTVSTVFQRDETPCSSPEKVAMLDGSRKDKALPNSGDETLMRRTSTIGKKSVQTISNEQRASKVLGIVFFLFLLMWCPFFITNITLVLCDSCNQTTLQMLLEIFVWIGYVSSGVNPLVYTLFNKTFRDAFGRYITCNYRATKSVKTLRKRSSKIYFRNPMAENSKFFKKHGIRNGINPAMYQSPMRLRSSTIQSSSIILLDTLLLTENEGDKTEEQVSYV

Structure (SMILES) | Ki (h5-HT2B) | Human dose (Human) | Ki (hα2A)
COc1ccc(OC)c(CC(C)N)c1.Cl (stereo not drawn) [2,5-DMA, 2,5-Dimethoxyamphetamine hydrochloride] | 5180 nM | 80 to 160 mg | 4390 nM
CCc1cc(OC)c(CC(C)N)cc1OC (stereo not drawn) [DOET, 4-ethyl-2,5-dimethoxyamphetamine] | 174 nM | 2.0 to 6.0 mg | > 4970 nM
CCCCCc1cc(OC)c(CC(C)N)cc1OC (stereo not drawn) [DOAM, 4-amyl-2,5-dimethoxyamphetamine] | 98 nM | > 10 mg | 2310 nM
CCCCc1cc(OC)c(CC(C)N)cc1OC (stereo not drawn) [DOBU, 4-butyl-2,5-dimethoxyamphetamine] | 162 nM | Uncertain | 1710 nM
CCCc1cc(OC)c(CC(C)N)cc1OC.Cl (stereo not drawn) [DOPR, 4-propyl-2,5-dimethoxyamphetamine hydrochloride] | 126 nM | 2.5 to 5.0 mg | 513 nM
COc1cc(CC(C)N)c(OC)cc1C (stereo not drawn) [DOM, 4-methyl-2,5-dimethoxyamphetamine] | 149 nM | 3.0 to 10.0 mg | > 4970 nM

— publication PMC12916490 (Molecular Psychiatry, 2025)
